Laboratory results reported in patent US20230026163A1, “ANTICANCER COMPOUND AND MEDICAL USE THEREOF” (ASCENTAWITS PHARMACEUTICALS, LTD., priority 2019, published 2023).

Columns and labels:
[1] = Hepatomicrosome stability, dog; conditions: for Remaining percentage after 30 minutes: Dog, 2 μM
Protocol: (§1) 1a) With NADPH: 10 μL of 20 mg/mL of hepatomicrosome and 40 μL of 10 mM of NADPH were added to medium. The final concentrations of hepatomicrosome and NADPH were 0.5 mg/mL and 1 mM, respectively.
(§2) 1b) Without NADPH: 10 μL of 20 mg/mL hepatomicrosome and 40 μL of ultra-pure H2O were added to medium. The final concentration of hepatomicrosome was 0.5 mg/mL.
(§3) 3) 3) Aliquots of 50 μL from the reaction solutions at 0 minute and 30 minutes were taken. The reaction solutions were stopped by adding 4 volumes of cold acetonitrile and 4 internal standards (IS internal standard, 100 nM of Alprazolam, 200 nM of caffeine, 200 nM of Labetalol, and 2 μM of Ketoprofen) to stop the reaction solution. The samples were centrifuged at 3,220 g for 40 minutes. Aliquots of 100 μL of the supernatants were mixed with 100 μL of ultra-pure H2O. Then, the mixtures were used for LC-MS/MS analysis. All experiments were performed in duplicate. The test results were as follow.

AA8 cell line = test: Cytotoxicity on AA8 cell line (2 hours exposure, AlamarBlue); format: cell-based, Chinese hamster; conditions: Cricetulus griseus, CHO-AA8; AA8, 2 hours exposure, then 70 hours, normoxic
[2] = Hepatomicrosome stability, rat; conditions: for Remaining percentage after 30 minutes: Rat, 2 μM
Protocol: as §1, §2, §3

Plasma stability, mouse = format: in vitro ADME
Protocol: Frozen plasma was melted immediately in a water bath at 37° C. […] The supernatants were collected into new tubes, respectively. pH values of the plasma were checked and recorded. Note: a, no more 2 times melted plasma was used since the sample was received; b, the plasma in pH 7 to pH 8 was used.
1 mM of working solution of the test compounds and the control compound, propantheline, were prepared in DMSO. 1 mM of working solution of the control compound in […] was prepared in acetonitrile. 4 μL of the working solutions were added to 796 μL of pre-incubated plasma respectively to achieve a final concentration of 5 μM. The final concentration of solvent was 0.5%.
[…] The test was performed in duplicate. […] 50 μL of the labeled plasma was added to new tubes containing 300 μL of the quench solution of room temperature, i.e., the sample with a preparation time of 0. The samples were vortexed to mix for 5 minutes. […] 100 μL of the supernatant was transferred to new plates.

O=[N+]([O-])c1ccc(C(OP(=O)(N2CC2)N2CC2)C(F)(F)F)c2ccccc12 (stereo not drawn) [Compound 01]
Remaining percentage after 30 minutes ([1]; with NADPH): 31.16% | Remaining percentage after 30 minutes ([1]; without NADPH): 101.62% | Stability in hepatomicrosomes (conclusion) ([1]; dog): unstable | IC50 (AA8 cell line): 10.8 µM | Remaining percentage after 30 minutes ([2]; with NADPH): 71.05% | Remaining percentage after 30 minutes ([2]; without NADPH): 111.15% | Stability in hepatomicrosomes (conclusion) ([2]; rat): unstable | Remaining percentage (Plasma stability, mouse; Mouse plasma, 5 μM, 37° C., after 30 minutes): 55.07% | Stability in plasma (conclusion) (Plasma stability, mouse; mouse): relatively unstable
